From ChEMBL document CHEMBL3039007, “Structure-based identification of OATP1B1/3 inhibitors” (Mol Pharmacol, 2013)
Several values for one entry are separate records, joined by “and”; a condition that tells them apart may be missing. Equal values may be shown once.

Columns and labels:
[1] = target: T1, Solute carrier organic anion transporter family member 1B3 (Homo sapiens, UniProt Q9NPD5); details: chinese hamster, cho, 10 µM
T1 sequence (Q9NPD5 whole entry): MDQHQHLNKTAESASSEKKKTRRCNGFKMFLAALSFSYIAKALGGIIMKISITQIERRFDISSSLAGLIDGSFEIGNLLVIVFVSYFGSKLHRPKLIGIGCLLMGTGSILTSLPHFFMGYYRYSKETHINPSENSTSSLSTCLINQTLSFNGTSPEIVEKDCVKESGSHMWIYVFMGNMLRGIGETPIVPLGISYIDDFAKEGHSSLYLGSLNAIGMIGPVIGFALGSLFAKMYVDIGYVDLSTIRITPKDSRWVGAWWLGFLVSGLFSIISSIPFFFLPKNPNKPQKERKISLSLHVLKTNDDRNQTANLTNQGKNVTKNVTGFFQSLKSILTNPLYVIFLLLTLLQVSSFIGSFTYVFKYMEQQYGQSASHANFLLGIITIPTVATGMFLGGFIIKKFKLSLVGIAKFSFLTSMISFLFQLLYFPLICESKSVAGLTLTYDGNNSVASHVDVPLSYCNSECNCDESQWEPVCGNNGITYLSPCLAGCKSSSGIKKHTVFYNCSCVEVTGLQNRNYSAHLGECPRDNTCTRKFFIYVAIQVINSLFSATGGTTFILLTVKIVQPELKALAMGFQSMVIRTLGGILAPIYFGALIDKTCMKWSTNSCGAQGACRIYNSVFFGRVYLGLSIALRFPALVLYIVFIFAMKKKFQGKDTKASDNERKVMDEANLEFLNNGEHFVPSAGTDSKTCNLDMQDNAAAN

[2] = target: T2, Solute carrier organic anion transporter family member 1B1 (Homo sapiens, UniProt Q9Y6L6); details: chinese hamster, cho, 10 µM
T2 sequence (Q9Y6L6 whole entry): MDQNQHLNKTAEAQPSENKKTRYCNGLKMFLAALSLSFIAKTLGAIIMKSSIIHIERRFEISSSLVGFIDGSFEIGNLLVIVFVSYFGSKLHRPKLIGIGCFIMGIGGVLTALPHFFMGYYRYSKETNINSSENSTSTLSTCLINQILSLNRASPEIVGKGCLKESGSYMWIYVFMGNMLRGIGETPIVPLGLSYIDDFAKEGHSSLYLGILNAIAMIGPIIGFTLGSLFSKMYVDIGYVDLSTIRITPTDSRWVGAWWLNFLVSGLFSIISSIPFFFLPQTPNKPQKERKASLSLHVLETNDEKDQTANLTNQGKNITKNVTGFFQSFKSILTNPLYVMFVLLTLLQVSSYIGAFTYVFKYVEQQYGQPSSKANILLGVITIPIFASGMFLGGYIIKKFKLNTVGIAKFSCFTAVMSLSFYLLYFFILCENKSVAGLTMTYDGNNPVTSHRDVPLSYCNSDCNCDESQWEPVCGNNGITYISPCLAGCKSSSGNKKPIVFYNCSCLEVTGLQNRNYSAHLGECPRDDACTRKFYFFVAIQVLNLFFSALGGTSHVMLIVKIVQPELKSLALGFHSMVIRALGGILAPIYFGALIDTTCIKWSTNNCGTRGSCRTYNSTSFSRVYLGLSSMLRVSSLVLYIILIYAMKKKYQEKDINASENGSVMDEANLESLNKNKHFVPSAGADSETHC

Compound | residual activity [1] | residual activity [2]
CN(C)CCCN1c2ccccc2CCc2ccccc21.Cl [IMIPRAMINE HYDROCHLORIDE] | 92.77% | 61.55%
CC1Cc2ccccc2N1NC(=O)c1ccc(Cl)c(S(N)(=O)=O)c1 (stereo unspecified) [INDAPAMIDE] | 97.5% | 80.06%
O=C(O)c1cc2ccccc2[nH]1 [INDOLE-2-CARBOXYLIC ACID] | 117.8% | 121.4%
OCc1c[nH]c2ccccc12 [INDOLE-3-CARBINOL] | 121.9% | 88.32%
COc1ccc2c(c1)c(CC(=O)O)c(C)n2C(=O)c1ccc(Cl)cc1 [INDOMETHACIN] | 50.32% | 97.38%
CC(C(=O)O)c1ccc(N2Cc3ccccc3C2=O)cc1 (stereo unspecified) [INDOPROFEN] | 96.18% | 97.2%
OC[C@H]1O[C@@H](n2cnc3c(O)ncnc32)[C@H](O)[C@@H]1O [INOSINE] | 107.3% | 110.7%
O=C(CCCCC(=O)Nc1c(I)cc(I)c(C(=O)O)c1I)Nc1c(I)cc(I)c(C(=O)O)c1I [IODIPAMIDE] | 60.87% | 90.55%
Oc1c(I)cc(I)c2cccnc12 [IODOQUINOL] | 87.46% | 86.7%
CCC(Cc1c(I)cc(I)c(N)c1I)C(=O)O (stereo unspecified) [IOPANOIC ACID] | 59.57% | 31.11%
CC(C)Oc1ccc2c(=O)c(-c3ccccc3)coc2c1 [IPRIFLAVONE] | 84.86% | 137.7%
CC(C)NNC(=O)c1ccncc1.O=S(=O)(O)O [IPRONIAZID SULFATE] | 101.8% | 122.7%
CCCCC1=NC2(CCCC2)C(=O)N1Cc1ccc(-c2ccccc2-c2nnn[nH]2)cc1 [IRBESARTAN] | 47.18% | 76.05%
COc1c(O)cc(O)cc1O [IRETOL] | 111.8% | 89.16%
COc1cc(-c2coc3cc(O[C@@H]4O[C@H](CO)[C@@H](O)[C@H](O)[C@H]4O)c(OC)c(O)c3c2=O)cc(O)c1OC [IRIDIN] | 90.79% | 114.5%
COc1cc(-c2coc3cc(OC)c(OC)c(OC)c3c2=O)cc(OC)c1OC [IRIGENIN TRIMETHYL ETHER] | 91.27% | 216.2%
COc1cc(-c2coc3cc(OCc4ccccc4)c(OC)c(O)c3c2=O)cc(O)c1OC [IRIGENIN, 7-BENZYL ETHER] | 36.98% | 60.69%
COc1cc(-c2coc3cc(OCc4ccccc4)c(OC)c(O)c3c2=O)cc(OCc2ccccc2)c1OC [IRIGENIN, DIBENZYL ETHER] | 93.33% | 92.09%
O=c1c(-c2cc(O)c(O)c(O)c2)coc2cc(O)c(O)c(O)c12 [IRIGENOL] | 92.26% | 71.59%
CC(=O)Oc1cc(-c2coc3cc(OC(C)=O)c(OC(C)=O)c(OC(C)=O)c3c2=O)cc(OC(C)=O)c1OC(C)=O [IRIGINOL HEXAACEATATE] | 94.12% | 102.1%
COc1cc2occc2c2oc(=O)ccc12 [ISOBERGAPTENE] | 113.9% | 127.3%
CC(C)Cn1c(=O)n(C)c(=O)c2[nH]cnc21 [ISOBUTYLMETHYLXANTHINE] | 85.37% and 74.61% | 102.2% and 126.3%
COc1ccc2c(c1O)-c1c(OC)c(OC)cc3c1[C@H](C2)N(C)CC3 [ISOCORYDINE] | 102.1% | 115.2%
Cc1cc(=O)c2c(O)cc(O)c(C)c2o1 [ISOEUGENITOL] | 101% | 129.2%

Compound | residual activity [1] | residual activity [2]
COc1ccc(-c2cc(=O)c3c(O)cc(O)c(-c4cc(-c5cc(=O)c6c(O)cc(O)cc6o5)ccc4OC)c3o2)cc1 [ISOGINKGETIN] | 63.51% | 36.16%
Cl.O=C(O)C1=CCNCC1 [ISOGUVACINE HYDROCHLORIDE] | 103.5% | 113.5%
C=C1CCC2C(CC2(C)C)C(=O)CCC1O (stereo unspecified) [ISOKOBUSONE] | 82.48% | 93.72%
O=C(/C=C/c1ccc(O)cc1)c1ccc(O)cc1O [ISOLIQUIRITIGENIN] | 119.2% | 210.9%
NNC(=O)c1ccncc1 [ISONIAZID] | 98.94% | 88.4%
COc1cc(O)ccc1C(C)=O [ISOPEONOL] | 84.87% | 60.41%
COc1c2ccoc2c(OC)c2oc(=O)ccc12 [ISOPIMPINELLIN] | 29.02% | 84.51%
CC(C)[N+](C)(CCC(C(N)=O)(c1ccccc1)c1ccccc1)C(C)C.[I-] [ISOPROPAMIDE IODIDE] | 91.67% | 83.43%
CC(C)NCC(O)c1ccc(O)c(O)c1.Cl (stereo unspecified) [ISOPROTERENOL HYDROCHLORIDE] | 88.72% | 105.2%
COC(=O)[C@H]1[C@H]2C[C@H]3c4[nH]c5cc(OC)ccc5c4CCN3C[C@H]2C[C@@H](OC(=O)c2cc(OC)c(OC)c(OC)c2)[C@@H]1OC [ISORESERPINE] | 42.22% | 38.5%
COc1cc2c(cc1OC)[C@@H]1C(=O)c3ccc4oc(C(C)C)cc4c3O[C@@H]1CO2 [ISOROTENONE] | 87.44% | 78.62%
C/C=C/c1ccc2c(c1)OCO2 [ISOSAFROLE] | 79.83% | 75.01%
O=[N+]([O-])O[C@H]1CO[C@H]2[C@@H]1OC[C@H]2O[N+](=O)[O-] [ISOSORBIDE DINITRATE] | 114.2% | 86.27%
COc1ccc(-c2coc3c(OC)c(OC)cc(OC)c3c2=O)cc1 [ISOTECTORIGENIN TRIMETHYL ETHER] | 118.2% | 133.5%
COc1ccc(-c2coc3c(OC)c(OC)cc(O)c3c2=O)cc1 [ISOTECTORIGENIN, 7-METHYL ETHER] | 105% | 135.9%
CC1=C(/C=C/C(C)=C/C=C/C(C)=C\C(=O)O)C(C)(C)CCC1 [ISOTRETINOIN] | 51.47% | 32.24%
Cc1cc(NC(=O)C2=C(O)c3ccccc3S(=O)(=O)N2C)no1 [ISOXICAM] | 86.6% | 111.2%
CC(COc1ccccc1)NC(C)C(O)c1ccc(O)cc1.Cl (stereo unspecified) [ISOXSUPRINE HYDROCHLORIDE] | 77.52% | 38.44%
C/C=C(/C)C(=O)O[C@@H]1Cc2c(ccc3ccc(=O)oc23)OC1(C)C [JATAMANSIN] | 153% | 165.1%
O=C(O)/C=C/C=C/c1ccccc1 [JUAREZIC ACID] | 88.74% | 102.3%
O=C1C=CC(=O)c2c(O)cccc21 [JUGLONE] | 93.79% | 66.93%
C=C(C)[C@H]1CN[C@H](C(=O)O)[C@H]1CC(=O)O [KAINIC ACID] | 103.1% | 106.3%
C[C@@H]1O[C@@H](O[C@H]2[C@H](O[C@H]3CC[C@@]4(C)[C@@H](CC[C@]5(C)[C@@H]4CC=C4[C@@H]6CC(C)(C)CC[C@]6(C(=O)O[C@@H]6O[C@H](CO[C@@H]7O[C@H](CO)[C@@H](O[C@@H]8O[C@@H](C)[C@H](O)[C@@H](O)[C@H]8O)[C@H](O)[C@H]7O)[C@@H](O)[C@H](O)[C@H]6O)CC[C@]45C)[C@]3(C)CO)OC[C@H](O)[C@@H]2O)[C@H](O)[C@H](O)[C@H]1O [KALOPANAXSAPONIN B] | 109.8% | 127.7%
COc1c(-c2ccccc2)oc2c(ccc3occc32)c1=O [KARANJIN] | 124.7% | 50.39%
